This note sets out measurements from patent US9504248B2, “Antimicrobial composition” (Rohm and Haas Company, priority 2011, dated 2016).

≈ marks a conversion by molar mass, not a printed value.

The assay relates to Escherichia coli (10536 strain). As to the kind of experiment: 15 second contact suspension kill assay (Example 1 protocol, also Example 3). The assay is classed as cell-based. Conditions: for bacterial kill (in words) / NMBS, mean bacterial survival: 15 s contact; for NMBS, mean bacterial survival: active concentrations (% w/v) as defined per example, 0 = complete kill, mean of triplicate. An excerpt:
The efficacies of antimicrobial agents can be usefully compared by determining the Minimum Biocidal Concentration (MBC). The MBC is defined as the lowest absolute concentration of the particular active that provides complete kill (zero bacterial growth). The differing behaviours of inhibitory antimicrobtals in Isolation and mixtures have been widely explored using the concept of the Fractional Concentration and Fractional Inhibitory Concentration (FIC). See for instance J R W Lambert and R Lambert, J. Appl. Microblol 95, 734 (2003); T. Jadavji. C G Prober and R Cheung. Antimicrobial Agents and Chemotherapy 26, 91 (1984), and WO 2004/006876. These parameters can be defined as follows:
[formula] [formula] By analogy the Fractional Biocidal Concentration (FBC) is given by:
Antimicrobial efficacy is tested against a representative pathogenic bacterial organism, Gram negative Escherichia coli. Concentrations of actives are expressed in terms of the percentage weight/volume (% w/v) throughout Example 1.
An overnight culture of Escherichia coli (10536 strain) was prepared in 50 ml total volume of TSB broth, grown for ca. 18 hrs at 37° C. and shaken at 150 rpm. 1 ml of this overnight E. coli culture was transferred to 50 ml of fresh TSB broth and incubated at 37° C. at 150 rpm for ca. 4 hours. This culture was separated into equal volumes and centrifuged at 4000 rpm for 15 minutes, washed with sterile saline (0.85% NaCl), centrifuged once more and re-suspended in saline to give a final concentration of 0.8 OD620 equivalent to about 10^8 cells per milliliter for this particular organism. Here, OD620 indicates the absorbance of a sample in a cuvette of 1.0 cm path length at a wavelength of 620 nm. This bacterial stock was used for assaying against antimicrobial actives (in triplicate).
The following assay describes the testing of 8 materials using 6 dilutions across half of a 96-well micro titre plate (MTP). Using this approach it is possible to assay 16 actives (without replicates) with one full dilution plate, replicating this set up in two halves of the plate columns, 1-6 and 7-12.
1M solutions of the test actives were prepared in dimethylsulphoxide (DMSO).
Aliquots (270 μl) of the materials at 1.11 times the final concentration were dispensed into the wells of the MTP along one column (A1-H1). This MTP was labelled as the “Screening plate”.
In another MTP, labelled as the “Dilution plate”, 270 μl of D/E neutralising solution from DIFCO Composition was added to column 1. The composition of the neutralising solution was as follows: pancreatic digest of casein, 5.0 g/L; Yeast Extract, 2.5 g/L; Dextrose, 10 g/L, sodium thioglycollate, 1.0 g/L, sodium thiosulphate, 6.0 g/L; sodium bisulphite, 2.5 g/L; Polysorbate 80, 5.0 g/L; lecithin 7.0 g/L; bromocresol purple, 0.02 g/L with a pH in the range 7.6±0.2.
270 μl of tryptone diluent solution was added to all the remaining wells of the Dilution MTP (columns 2-6).
Bacterial stock (30 μl) was then added to the prepared 270 μl of the solution of actives in the Screening Plate and mixed, using a multichannel pipette with 8 tips to aspirate and dispense the same volume of bacterial stock in parallel to 8 wells in rows A-H. After a contact time of 15 seconds, the mixtures were quenched by transferring 30 μl volumes of the mixtures into the 270 μl D/E neutralising solution in the prepared dilution plate, using aspiration to mix. After exactly 5 minutes in the DIE neutralising solution, 30 μl volumes were transferred from column 1 to column 2 of the Dilution MTP and mixed, before transferring further 30 μl volumes from column 2 into column 3. This process was repeated serially diluting the bacteria across the plate to column 6.
30 μl volumes from each well in the Dilution MTP were transferred onto pre-labelled segment of Tryptone Soya Agar (TSA) plates starting from the lowest bacterial concentration (highest dilution, column 6) to the highest bacterial concentration (column 1).

`Cc1ccc(C(C)C)c(O)c1` [A, thymol, reference compound]: the “bacterial kill (in words)” value is “not showing bacterial kill”.
With `CCCCCc1ccc(O)cc1` [1:16, 4-pentylphenol], the “NMBS, mean bacterial survival” value turned out to be 6.6 log CFU/ml.
Still for that read-out and setting: the same measure for `CCC(C)c1ccccc1O` (stereo not drawn) [1:25, 2-sec-butylphenol]: 7.5 log CFU/ml.
The same measure, in the same setting: the result for `CCCCc1ccc(O)cc1` [1:13, 4-butylphenol] reads 7.0 log CFU/ml; that for `C/C=C/c1ccccc1O` [1:39, (E)-2-(prop-1-enyl)phenol], 6.9 log CFU/ml.
The same measure, in the same setting: the result for `CC(C)(C)c1cccc(O)c1` [1:21, 3-tert-butylphenol] reads 0 log CFU/ml; that for `Oc1ccccc1C1CCCC1` [1:32, 2-cyclopentylphenol], 3.4 log CFU/ml; that for `Oc1ccc(C2CCCC2)cc1` [1:35, 4-cyclopentylphenol], 0 log CFU/ml.
Regarding `CC1=CCC(C(C)(C)O)CC1` (stereo not drawn) [1:7, alpha-terpineol], the “NMBS, mean bacterial survival” value is recorded as 7 log CFU/ml.
The same measure, in the same setting: the result for `CCCCCc1ccc(O)cc1` [1:15, 4-n-pentylphenol] reads 0 log CFU/ml.
Still for that read-out and setting: the result for `Oc1ccccc1Cc1ccccc1` [1:42, 2-benzylphenol] reads 7.1 log CFU/ml; that for `CC(C)(C)c1cccc(O)c1` [1:22, 3-tert-butylphenol], 7.6 log CFU/ml.
As for `CC(C)(C)c1ccccc1O` [1:18, 2-tert-butylphenol], the “NMBS, mean bacterial survival” value came to 0 log CFU/ml.
Turning to `Oc1ccc(C2CCCC2)cc1` [1:36, 4-cyclopentylphenol], the “NMBS, mean bacterial survival” value amounted to 7.1 log CFU/ml.
Regarding `Oc1ccccc1C1CCCC1` [1:31, 2-cyclopentylphenol], the “NMBS, mean bacterial survival” value is reported as 0 log CFU/ml.
Same read-out and setting: the same measure for `Oc1cccc(-c2ccccc2)c1` [3:2, 3-phenylphenol]: 7.4 log CFU/ml; for `Oc1ccccc1Cc1ccccc1` [1:41, 2-benzylphenol]: 0 log CFU/ml; for `CCCCc1ccc(O)cc1` [1:12, 4-n-butylphenol]: 0 log CFU/ml.
The same measure, in the same setting: the result for `Oc1ccc(Cc2ccccc2)cc1` [1:45, 4-benzylphenol] reads 3.8 log CFU/ml; that for `Oc1cccc(-c2ccccc2)c1` [3:3, 3-phenylphenol], 7.7 log CFU/ml.
With `Cc1ccc(C(C)C)c(O)c1` [Thymol, thymol, reference compound], under “Escherichia coli, 15 s, component alone, lowest tested concentration giving zero bacterial survival after 15 s, upper boundary, read-out: Minimum biocidal concentration (MBC)”, the MBC is 500 µg/mL (≈ 3.33 mM).
On to `CCCc1ccc(O)cc1` [1:8, 4-n-propylphenol], for which the “NMBS, mean bacterial survival” value came to 0 log CFU/ml.
Same read-out and setting: the same measure for `Oc1ccc(Cc2ccccc2)cc1` [1:44, 4-benzylphenol]: 0 log CFU/ml; for `Oc1ccccc1C1CCCC1` [1:33, 2-cyclopentylphenol]: 7.5 log CFU/ml; for `CCC(C)c1ccc(O)cc1` (stereo not drawn) [1:27, 4-sec-butylphenol]: 0 log CFU/ml.
On to `Oc1cccc(-c2ccccc2)c1` [3:1, 3-phenylphenol], for which the “NMBS, mean bacterial survival” value is on record as 4.3 log CFU/ml.
As for `CC(C)(C)c1ccccc1O` [1:19, 2-tert-butylphenol], the “NMBS, mean bacterial survival” value was 7.5 log CFU/ml.
The same measure, in the same setting: the result for `CCC(C)c1ccc(O)cc1` (stereo not drawn) [1:28, 4-sec-butylphenol] reads 4.1 log CFU/ml; that for `CCC(C)c1ccccc1O` (stereo not drawn) [1:24, 2-sec-butylphenol], 0 log CFU/ml.
The same measure, in the same setting: the result for `CC1=CCC(C(C)(C)O)CC1` (stereo not drawn) [1:4, alpha-terpineol] reads 0 log CFU/ml.
As to `CC1=CCC(C(C)(C)O)CC1` (stereo not drawn) [B, alpha-terpineol, reference compound], the “bacterial kill (in words)” value was “not showing bacterial kill”.
`CCCc1ccc(O)cc1` [1:9, 4-n-propylphenol]: the “NMBS, mean bacterial survival” value is 7.8 log CFU/ml.
Same read-out and setting: the same measure for `CC1=CCC(C(C)(C)O)CC1` (stereo not drawn) [1:6, alpha-terpineol]: 7 log CFU/ml.
